{"source": "patent US11564927B2", "about": "“Therapeutic compositions, combinations, and methods of use” (Verastem, Inc., priority 2015, dated 2023)", "key": {"[1]": {"system": "Primary human CD8+ T-cells", "assay": "CD8+ T-cell proliferation, BrdU incorporation", "format": "cell-based", "conditions": "72 hours, anti-CD3/anti-CD28 coated beads, BrdU incorporation (FIG. 1)", "description": "Primary human CD8+ T-cells isolated from healthy donor PBMCs were incubated in the presence of anti-CD^3/anti-CD28 coated beads with increasing concentrations of VS-4718 or VS-6063 for 72-hours and assayed for BrdU incorporation as a measure of new DNA synthesis.\nCD8+ T cells were isolated from fresh, healthy human PBMCs by negative immunomagnetic bead separation. Purified CD8+ T cells were plated on CD3-coated plates in the presence or absence of VS-4718, VS-6063, or GSK2256098 for 72 hours. Assay wells were pulsed with BrdU for the last 3-4 hours of culture and subjected to a BrdU-incorporation assay for the determination of actively proliferating cells. Data shown in FIG. 5 are presented as fold-change vs. DMSO control wells."}, "[2]": {"system": "syngeneic MC38 colorectal tumors", "assay": "Survival of mice bearing MC38 colorectal tumors", "format": "in vivo, mouse", "description": "Based on the inhibition of tumor-associated macrophages and enhancement of CD8+ T-cells, potentiation of FAK/PYK2 inhibitors on the anti-tumor efficacy of an anti-PD-1 monoclonal antibody in syngeneic mouse tumor models was investigated. Mice bearing established syngeneic MC38 colorectal tumors were treated with VS-4718 for 5 days before combination treatment with anti-PD1 antibody along with continued VS-4718 administration. Combination of VS-4718 with anti-PD1 extended the median overall survival to 42 days relative to 21, 25 and 28 day median overall survival with vehicle control, single agent anti-PD-1 and single agent VS-4718, respectively (FIG. 2)."}}, "data": [{"smiles": "CNC(=O)c1ccccc1Nc1cc(Nc2ccc(N3CCOCC3)cc2OC)ncc1C(F)(F)F", "note": "[VS-4718]", "values": [{"measurement": "proliferation of CD8+ cytotoxic T-cells", "setting": "[1]", "result": "stimulate proliferation"}, {"measurement": "mice still surviving", "setting": "[2]; day 56, MC38 model", "result": "no surviving mice"}, {"measurement": "median overall survival", "setting": "[2]; mice with established MC38 tumors, VS-4718 for 5 days before combination with anti-PD1 (FIG. 2)", "result": 28, "unit": "days"}]}, {"smiles": "Cc1nc(Nc2ncc(C(=O)Nc3c(C)cccc3Cl)s2)cc(N2CCN(CCO)CC2)n1", "note": "[dasatinib]", "values": [{"measurement": "proliferation of CD8+ cytotoxic T-cells", "setting": "[1]", "result": "potently impair the proliferation"}]}, {"smiles": "CC(=O)Nc1cccc(-n2c(=O)n(C3CC3)c(=O)c3c(Nc4ccc(I)cc4F)n(C)c(=O)c(C)c32)c1", "note": "[trametinib]", "values": [{"measurement": "proliferation of CD8+ cytotoxic T-cells", "setting": "[1]", "result": "potently impair the proliferation"}]}]}
